The test system of one data set is TSH. Briefly: Serum TSH in hypothyroid rats infused with Tetrac or T4. The data set is classed as in vivo, rat. The conditions noted are these: for Serum TSH: hypothyroid rats, mean ± SEM. The procedure:
Seventy-nine male SIVZ rats were purchased from the breeder (Institut für Labortierkunde des Universität Zürich, Zürich, Switzerland). […] The infusion lasted 13 days. […] An euthyroid control group was included. The animals were weighed every 2 days. Rats were sacrificed by decapitation and blood was collected and stored at […] until use. Tissues (liver, heart, brown adipose tissue, cerebral cortex and pituitary) were removed rapidly, frozen in liquid nitrogen and stored at […] until use.
Hornone assays. […] Endocrinol. […] Serum TSH measurements were performed with reagents kindly provided by the National Pituitary Program, NIAMDD, NIH (Bethesda, USA).

Data set [1] is described as follows: Serum T3, T4, Triac and Tetrac levels in infused rats. The class given is in vivo. The note with it: male, SIVZ, rat, intraperitoneal, mean ± SEM, read-out: Serum Tetrac. The procedure: (§1) Seventy-nine male SIVZ rats were purchased from the breeder (Institut für Labortierkunde des Universität Zürich, Zürich, Switzerland). They were rendered hypothyroid by a single injection of [^131I]Na (100 μCi/rat) and before and throughout the experiment 0.02% 2-mercapto-1-methylimidazol (MMI) was added to drinking water. In order to have an euthyroid control group of similar weight and identical age, 10 rats received only MMI in the drinking water and 2 weeks before implanting the minipumps, MMI was withdrawn. Osmotic minipumps (secretion rate 0.25 μl/hour, duration 14 days) were implanted intraperitoneally (i.p.) 2 months after the injection of [^131I]Na. The minipumps were filled with T4 or Tetrac dissolved in 0.05 N NaOH, 2% BSA and 100,000 cpm [^125I]T4 or [^125I]Tetrac as control of their secretion rates. The infusion lasted 13 days. 0, 1.5, 4.5, 13.5 and 40.5 nmol Tetrac/day/100 g or 0.5, 1.5, 4.5 and 13.5 nmol T4/day/100 g bodyweight (BW) (n=4/dose) were infused. An euthyroid control group was included. The animals were weighed every 2 days. Rats were sacrificed by decapitation and blood was collected and stored at […] until use. Tissues (liver, heart, brown adipose tissue, cerebral cortex and pituitary) were removed rapidly, frozen in liquid nitrogen and stored at […] until use.
Hornone assays. Total serum T4, T3, Tetrac, Triac and TSH levels (intra-assay coefficient of variation 7 to 10%, inter-assay coefficient of variation 12 to 15%) were measured using the method of Burger, A., Sakoloff, C., Staeheli, V., Vallotton, M. D., and Ingbar, S. H. Acta. Endocrinol. (Copenh.) 80: 58-69 (1975). Serum TSH measurements were performed with reagents kindly provided by the National Pituitary Program, NIAMDD, NIH (Bethesda, USA). The detection limits were 0.80 ng TSH/ml; 9.5 pmol T4/ml; 0.16 pmol T3/ml; 10 pmol Tetrac/ml and 0.52 pmol Triac/ml.

The subject of another data set is α-MHC mRNA. Briefly: Northern blot, α-MHC mRNA in heart. The class given is in vivo, rat. The conditions noted are these: infused rats, adjusted group mean at the mean Ln (TSH) concentration. The procedure: as §1
Total RNA extraction and Northern Blot hybridization Total RNA was extracted with the method of Chomczynski and Sacchi (Chomczynski, P. and Sacchi, N. Anal. Biochem. (1987) 162: 156-159). […]
The amount of labeled mRNA was quantified by scanning laser densitometry (Phosphorimager, Molecular Dynamics; Sunnyvale, USA). Variations in RNA loading and membrane transfer were corrected by densitometric quantification of a negative photograph of 28S and 18S ribosomal RNA bands from ethidium bromide stained RNA gels. […]

SMILES strings stand for the structures. Where two headings read alike, the source gives them in different places.

For the compound `O=C(O)Cc1cc(I)c(Oc2cc(I)c(O)c(I)c2)c(I)c1` [Tetrac, 3,3′,5,5′-tetraiodothyroacetic acid], the “Serum TSH” value with TSH (infusion 1.5 nmol/day/100 g BW) is 90.3 ± 8.6 ng/mL; with TSH (infusion 4.5 nmol/day/100 g BW), 4.6 ± 0.5 ng/mL; with TSH (infusion 13.5 nmol/day/100 g BW), 1.2 ± 0.3 ng/mL; in the data set on TSH (infusion 40.5 nmol/day/100 g BW) it was <0.8 ng/mL. In addition, the “Serum TSH concentration, mean of treatment group” value in the data set with TSH (mean over all dose levels of the treated rats, p=<0.04) was 24 ng/mL. In addition, the concentration at 13 days in data set [1] (Tetrac infusion 1.5 nmol/day/100 g BW) stood at 168 ± 16 nM; in data set [1] (Tetrac infusion 4.5 nmol/day/100 g BW), 332 ± 19 nM; in data set [1] (Tetrac infusion 13.5 nmol/day/100 g BW), 458 ± 27 nM; in data set [1] (Tetrac infusion 40.5 nmol/day/100 g BW) it was 406 ± 57 nM. Besides, the “α-MHC mRNA, adjusted mean” value in the data set on α-MHC mRNA is 5.3 arbitrary units.

The record behind these values is patent publication US6740680B1, “Pharmaceutical compositions to tetrac and methods of use thereof” (Becton Pharma, Inc., priority 1999, dated 2004).
